# Laboratory results from patent publication US10583094B2.
# Tests used:
# SUR1 = SUR1 knockdown by antisense ODN infusion at gelfoam implantation site; R1 astrocyte response to Na azide; type: cell-based, rat; settings: for Depolarization of R1 astrocytes on Na azide: Na azide 1 mM
# From the text: To further test involvement of SUR1, SUR1 expression was “knocked down” in situ by infusing oligodeoxynucleotide (ODN) for 14 days using a mini-osmotic pump, with the delivery catheter placed in the gelfoam implantation site in the brain, in the otherwise standard model we use for R1 astrocyte isolation ([…] et al., 1980, […] et al., 2002, […] et al., 2000, […] et al., 1999). Knockdown of SUR1 expression (SUR1KD) was achieved using antisense (AS; [NT] ID NO: 9)) (Yokoshiki et al., 1999) oligodeoxynucleotide (ODN), with scrambled ([…] ID NO: 10)) ODN being used as control. […] In R1 astrocytes from SUR1KD, however, Na azide had little effect on resting membrane potential (FIG. 24D).
# [1] = test system: freshly isolated R1 astrocytes; test: Na azide-induced blebbing and cell death of freshly isolated R1 astrocytes
# rodent model of stroke = test: Rodent model of stroke, mortality and hemisphere water (Example 9); type: in vivo, rat; settings: n=5 in each group
# MCA stroke (MCE model) [2] = test: MCA stroke (MCE model): tissue water content by wet/dry weight; type: in vivo, Wistar rats; settings: 8 hr after stroke
# Procedure: For large MCA strokes with malignant cerebral edema (MCE), the inventors first embolized microparticles (Nakabayashi et al., 1997) [polyvinyl alcohol (PVA) particles; […] […] TTC(−) portions of the involved hemisphere. […] Of these, 15 rats were used for validation of drug action (mortality, tissue water and glucose) and 5 rats were used for determination of drug distribution. […] For stroke size, stained sections were photographed and images were analyzed (Scion Image) to determine the percent of the involved hemisphere occupied by TTC(−) tissue; no correction for edema was performed. For some determinations of water or SUR1 protein content, individual coronal sections were divided under magnification into 3 parts: (i) the non-involved, control hemisphere; (ii) the TTC(+) portion of the involved hemisphere; (iii) the TTC(−) portion of the involved hemisphere. For each animal, pooled tissues from the 3 parts were then processed for tissue water measurements or for Western blots. Tissue water was quantified by the wet/dry weight method (Hua et al., 2003). Tissue samples were blotted to remove small quantities of adsorbed fluid. Samples were weighed with a precision scale to obtain the wet weight (WW), dried to constant weight at 80° C. and low vacuum, and then reweighed to obtain the dry weight (WD). The percent H2O of each tissue sample was then calculated as (WW-WD)×100/WW.
# thromboembolic stroke = test: Thromboembolic stroke with rtPA reperfusion at 6 hr: hemorrhagic conversion; type: in vivo, spontaneously hypertensive rats; settings: rtPA 10 mg/kg i.v. at 6 hr, 24 hr after stroke
# Procedure: A rodent model of thromboembolic stroke was used (Aoki et al., 2002; Kijkhuizen et al., 2001; Kano et al., 2000; Sumii et al., 2002; Tejima et al., 2001). […] Sumii et al., 2002). Rectal temperature was maintained at 37° C. with a thermostat-controlled heating pad. The right femoral artery was cannulated, and physiological parameters, including temperature, mean blood pressure, pH, pO2, and pCO2, glucose were monitored. Temporary focal ischemia was obtained with an embolic model that used allogeneic clots to occlude the MCA. Allogeneic, thrombin-induced, fibrin-rich blood clots were prepared using methods adapted from […] et al. (Asahi et al., 2000; […] et al., 2003; Sumii et al., 2002). Seven clots, 1.5 mm long, were used for embolizing. Using a ventral cervical incision, the internal and external carotid arteries were exposed. The external carotid artery and pterygopalatine arteries were ligated. Removable surgical clips were applied to the common and internal carotid arteries. The modified PE-50 catheter containing the clots was inserted retrograde into the external carotid artery and advanced up to the internal carotid artery. The temporary clips were removed, and the clots were injected. Incisions were closed. […] Physiological parameters, including temperature, mean blood pressure (tail cuff plethysmography), blood gases and glucose were monitored. […]
# MMP-9 & MMP-2 = test: Zymography of gelatinase activity of recombinant enzyme and stroke tissue; type: biochemical; settings: glibenclamide 10 μM; MMP inhibitor II 300 nM
# Procedure: Activation of MMP-9 & MMP-2 in stroke tissue was compared to controls.
# Next, the supernatants underwent a gelatinase purification process with gelatin-Sepharose 4B (Pharmacia), and Zymography was performed on the purified supernatants in sodium dodecyl sulfate gels containing gelatin (Rosenberg, 1994). Dried gels were scanned with a transparency scanner, and images were analyzed by densitometry. The relative lysis of an individual sample was expressed as the integrated density value of its band and divided by the protein content of the sample.
# [3] = rat, in vivo
# MCA stroke (MCE model) [4] = test system: MCA stroke (MCE model); design: species or system Wistar rats; settings: rat, in vivo, sc
compound,measurement,setting,value
"5′-GGCCGAGTGGTTCTCGGT-3′ (chemistry not given here) [AS-ODN, antisense oligodeoxynucleotide used to knock down SUR1 expression]",Depolarization of R1 astrocytes on Na azide,SUR1,little or no depolarization
same,Depolarization of R1 astrocytes on Na azide,SUR1; listed as SUR1KD,8.7±1.7 mV
same,SUR1 expression in gliotic capsule (immunoblot),"SUR1; ODN infused for 14 days, compared with scrambled ODN",significant reduction in SUR1 expression
same,Membrane blebbing after exposure to Na azide,SUR1; R1 astrocytes,not observed
CC1=NS(=O)(=O)c2cc(Cl)ccc2N1 [diazoxide],Cell morphology (blebbing) on exposure to channel opener,"[1]; phase contrast, observed over 30 min",developed progressive blebbing consistent with cytotoxic edema
COc1ccc(Cl)cc1C(=O)NCCc1ccc(S(=O)(=O)NC(=O)NC2CCCCC2)cc1 [glibenclamide],Excess water in stroke hemisphere compared with saline-treated rats,rodent model of stroke,only half as much excess water
same,Rise of water in TTC(+) tissue over uninvolved hemisphere,MCA stroke (MCE model) [2],2.5%
same,Rise of water in involved hemisphere over control hemisphere,MCA stroke (MCE model) [2],2.0%
same,Animals with hemorrhagic conversion,thromboembolic stroke; co-treated with glibenclamide 1.5 μg/kg i.v. plus pump 300 μM at ½ μl/hr,1/5
same,Animals showing no evidence of hemorrhage,thromboembolic stroke; co-treated with glibenclamide,4/5
same,Gelatinase activity in presence of compound,MMP-9 & MMP-2,the same as that assayed without
same,Serum glucose at 8 hr,[3],93 ± 3 mg/dL
same,Necrotic death (propidium iodide) induced by Na azide,"[1]; Na azide 1 mM, glibenclamide 1 μM",largely prevented
BODIPY-FL-glyburide [BODIPY-glibenclamide],Mortality during 7 days after MCA stroke,MCA stroke (MCE model) [4],40%
same,Water in TTC(+) tissue of involved hemisphere,MCA stroke (MCE model) [2],82.7±1.4%
